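Compound exposure: 48 hours, 5 concentrations, 96-well plates. Abbreviation: GI50, concentration required for 50% inhibition of growth.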 Activity calls are given as the source filed them. Rule as the data show it: active = GI50 up to about 1.1 µM and inactive = higher.
Columns and labels:
Test in all cases: NCI tumour cell line growth inhibition, 48 h
A498 = tested on: A498
UACC-257 = tested on: UACC-257
HCC 2998 = tested on: HCC 2998
A549 = tested on: A549
MOLT-4 = tested on: MOLT-4
HL-60 = tested on: HL-60
NCI-H522 = tested on: NCI-H522
K562 = tested on: K562
COLO 205 = tested on: COLO 205
NCI/ADR-RES = tested on: NCI/ADR-RES
DU-145 = tested on: DU-145
EKVX = tested on: EKVX
UACC-62 = tested on: UACC-62
HOP-62 = tested on: HOP-62
RPMI-8226 = tested on: RPMI-8226
OVCAR-3 = tested on: OVCAR-3
Hs-578T = tested on: Hs-578T
ACHN = tested on: ACHN
SK-MEL-5 = tested on: SK-MEL-5
SK-MEL-2 = tested on: SK-MEL-2
U-251 = tested on: U-251
RXF 393 = tested on: RXF 393
SK-MEL-28 = tested on: SK-MEL-28
T47D = tested on: T47D
CCRF-CEM = tested on: CCRF-CEM
KM12 = tested on: KM12
SW-620 = tested on: SW-620
NCI-H460 = tested on: NCI-H460
IGROV-1 = tested on: IGROV-1
PC-3 = tested on: PC-3
Malme-3M = tested on: Malme-3M
SN12C = tested on: SN12C
MDA-N = tested on: MDA-N
UO-31 = tested on: UO-31
BT-549 = tested on: BT-549
OVCAR-8 = tested on: OVCAR-8
786-0 = tested on: 786-0
SK-OV-3 = tested on: SK-OV-3
LOX IMVI = tested on: LOX IMVI
TK-10 = tested on: TK-10
MDA-MB-435 = tested on: MDA-MB-435
MDA-MB-231 = tested on: MDA-MB-231
SNB-19 = tested on: SNB-19
SF-268 = tested on: SF-268
NCI-H23 = tested on: NCI-H23
OVCAR-5 = tested on: OVCAR-5
SF-539 = tested on: SF-539
M14 = tested on: M14
SNB-75 = tested on: SNB-75
HT-29 = tested on: HT-29
MCF7 = tested on: MCF7
HCT-15 = tested on: HCT-15
HCT-116 = tested on: HCT-116
HOP-92 = tested on: HOP-92
SR = tested on: SR
SF-295 = tested on: SF-295
CAKI-1 = tested on: CAKI-1
NCI-H226 = tested on: NCI-H226
OVCAR-4 = tested on: OVCAR-4

For `Cc1cn2c(/C=C3/C(=O)Nc4ccccc43)c(-c3ccccc3)nc2s1`, the GI50 (A498) was 72.3 µM (inactive), the GI50 (UACC-257) was > 100 µM (inactive) and the GI50 (HCC 2998) was > 100 µM (inactive). For the same compound, the GI50 (A549) was > 100 µM (inactive), the GI50 (MOLT-4) was > 100 µM (inactive) and the GI50 (HL-60) was > 100 µM (inactive). For the same compound, the GI50 (NCI-H522) was > 100 µM (inactive), the GI50 (K562) was > 100 µM (inactive) and the GI50 (COLO 205) was > 100 µM (inactive). For the same compound, the GI50 (NCI/ADR-RES) was 37.5 µM (inactive), the GI50 (DU-145) was 78.3 µM (inactive) and the GI50 (EKVX) was 71.3 µM (inactive). The GI50 (UACC-62) was 67.6 µM (inactive), the GI50 (HOP-62) was 38.5 µM (inactive) and the GI50 (RPMI-8226) was > 100 µM (inactive). For the same compound, the GI50 (OVCAR-3) was 85.3 µM (inactive), the GI50 (Hs-578T) was 27.7 µM (inactive) and the GI50 (ACHN) was 32.2 µM (inactive). For the same compound, the GI50 (SK-MEL-5) was 71.1 µM (inactive), the GI50 (SK-MEL-2) was 28.1 µM (inactive) and the GI50 (U-251) was 29.3 µM (inactive). For the same compound, the GI50 (RXF 393) was 27 µM (inactive), the GI50 (SK-MEL-28) was > 100 µM (inactive) and the GI50 (T47D) was 38.9 µM (inactive). For the same compound, the GI50 (CCRF-CEM) was > 100 µM (inactive), the GI50 (KM12) was > 100 µM (inactive) and the GI50 (SW-620) was 64.4 µM (inactive). For the same compound, the GI50 (NCI-H460) was 78.2 µM (inactive), the GI50 (IGROV-1) was 40.5 µM (inactive) and the GI50 (PC-3) was 57.3 µM (inactive). The GI50 (Malme-3M) was > 100 µM (inactive), the GI50 (SN12C) was 93.1 µM (inactive) and the GI50 (MDA-N) was > 100 µM (inactive). The GI50 (UO-31) was 23.2 µM (inactive), the GI50 (BT-549) was 32.9 µM (inactive) and the GI50 (OVCAR-8) was 54.3 µM (inactive). The GI50 (786-0) was 17.2 µM (inactive), the GI50 (SK-OV-3) was 30.1 µM (inactive) and the GI50 (LOX IMVI) was 91 µM (inactive). The GI50 (TK-10) was 22.4 µM (inactive), the GI50 (MDA-MB-435) was > 100 µM (inactive) and the GI50 (MDA-MB-231) was 18.7 µM (inactive). The GI50 (SNB-19) was 24.3 µM (inactive), the GI50 (SF-268) was 31 µM (inactive) and the GI50 (NCI-H23) was 48.4 µM (inactive). The GI50 (OVCAR-5) was > 100 µM (inactive), the GI50 (SF-539) was 19.2 µM (inactive) and the GI50 (M14) was > 100 µM (inactive). For the same compound, the GI50 (SNB-75) was 25.8 µM (inactive), the GI50 (HT-29) was > 100 µM (inactive) and the GI50 (MCF7) was 29.4 µM (inactive). For the same compound, the GI50 (HCT-15) was > 100 µM, the GI50 (HCT-116) was 62.4 µM (inactive) and the GI50 (HOP-92) was 36.5 µM (inactive). The GI50 (SR) was > 100 µM (inactive), the GI50 (SF-295) was 37.5 µM (inactive) and the GI50 (CAKI-1) was > 100 µM (inactive).
In the case of `OCC1OC(n2cnc3cccnc32)CC1O` (stereo not drawn), the GI50 (A498) is reported as > 100 µM (inactive), the GI50 (UACC-257) is reported as > 100 µM (inactive) and the GI50 (HCC 2998) is reported as > 100 µM (inactive). The GI50 (A549) was > 100 µM (inactive), the GI50 (MOLT-4) was > 100 µM (inactive) and the GI50 (HL-60) was > 100 µM (inactive). For the same compound, the GI50 (NCI-H522) was > 100 µM (inactive), the GI50 (K562) was > 100 µM (inactive) and the GI50 (COLO 205) was > 100 µM (inactive). For the same compound, the GI50 (NCI/ADR-RES) was > 100 µM (inactive), the GI50 (DU-145) was > 100 µM (inactive) and the GI50 (EKVX) was > 100 µM (inactive). For the same compound, the GI50 (UACC-62) was > 100 µM (inactive), the GI50 (HOP-62) was > 100 µM (inactive) and the GI50 (OVCAR-3) was > 100 µM (inactive). For the same compound, the GI50 (Hs-578T) was > 100 µM (inactive), the GI50 (ACHN) was > 100 µM (inactive) and the GI50 (SK-MEL-5) was > 100 µM (inactive). For the same compound, the GI50 (SK-MEL-2) was > 100 µM (inactive), the GI50 (U-251) was > 100 µM (inactive) and the GI50 (RXF 393) was > 100 µM (inactive). For the same compound, the GI50 (SK-MEL-28) was > 100 µM (inactive), the GI50 (T47D) was > 100 µM (inactive) and the GI50 (CCRF-CEM) was > 100 µM (inactive). For the same compound, the GI50 (KM12) was > 100 µM (inactive), the GI50 (SW-620) was > 100 µM (inactive) and the GI50 (NCI-H460) was > 100 µM (inactive). For the same compound, the GI50 (IGROV-1) was > 100 µM (inactive), the GI50 (PC-3) was > 100 µM (inactive) and the GI50 (SN12C) was > 100 µM (inactive). The GI50 (MDA-N) was > 100 µM (inactive), the GI50 (UO-31) was > 100 µM (inactive) and the GI50 (BT-549) was > 100 µM (inactive). For the same compound, the GI50 (OVCAR-8) was > 100 µM (inactive), the GI50 (786-0) was > 100 µM (inactive) and the GI50 (LOX IMVI) was > 100 µM (inactive). For the same compound, the GI50 (TK-10) was > 100 µM (inactive), the GI50 (MDA-MB-435) was > 100 µM (inactive) and the GI50 (MDA-MB-231) was > 100 µM (inactive). For the same compound, the GI50 (SNB-19) was > 100 µM (inactive), the GI50 (SF-268) was > 100 µM (inactive) and the GI50 (NCI-H23) was > 100 µM (inactive). The GI50 (OVCAR-5) was > 100 µM (inactive), the GI50 (SF-539) was > 100 µM (inactive) and the GI50 (M14) was > 100 µM (inactive). For the same compound, the GI50 (NCI-H226) was > 100 µM (inactive), the GI50 (SNB-75) was 7.76 µM (inactive) and the GI50 (HT-29) was > 100 µM (inactive). The GI50 (MCF7) was > 100 µM (inactive), the GI50 (HCT-15) was > 100 µM and the GI50 (OVCAR-4) was > 100 µM (inactive). The GI50 (HCT-116) was > 100 µM (inactive), the GI50 (HOP-92) was > 100 µM (inactive) and the GI50 (SR) was > 100 µM (inactive). For the same compound, the GI50 (SF-295) was > 100 µM (inactive) and the GI50 (CAKI-1) was > 100 µM (inactive).

Source: ChEMBL document CHEMBL1201862, “PubChem BioAssay data set” (2004)
